Patent publication US4073935A, “Substituted propanol-(2)-derivatives and their nicotinic acid esters, and process for their preparation, and the use thereof as hypolipemic drugs” (Klinge Pharma GmbH & Co., priority 1974, dated 1978)
Like-named read-outs stand apart in the source and are kept apart here.

Tested on: serum lipids
Assay: Lipid-lowering action in normolipemic rats
Assay type: in vivo
Settings: Rattus norvegicus, 72 h, 4 × 100 mg/kg oral over 3 days, male Wistar rats, vs controls, X ± Sx
Method: Lipid-lowering action was tested on groups of 10 male Wistar rats (Ivanovas-Kisslegg), weight 200-220 g, normolipemic, or ordinary ration ("ssniff" complete feed).
The test compounds were taken up in an aqueous solution of 0.25% agar and 0.85% NaCl and administered orally. After administration of 4 × 100 mg/kg over a period of 3 days, the animals were bled by cardiac puncture after privation of […] for 4 hours.^1
^1 H. Enomoto and R. Zschocke, 3rd Int. Symp. Atheroscler, Berlin 1973, Abstr. 238.
Serum lipids were determined with a Technicon autoanalyzer. Total cholesterol (TC) was tested by the Liebermann-Burchard reaction. Quantitative analysis for triglycerides (TG) was performed by Eggstein and Kreutz's enzyme method (Klin. Wschr. 44, 262, 1966), modified for autoanalyzer.
Lipid lowering effect is expressed as percent lowering of total cholesterol and triglycerides compared to controls.

[1] = read-out: % Lowering TC (total cholesterol)
[2] = read-out: % Lowering TG (triglycerides)

Row | SMILES | inhibition in vivo at 100 mg/kg [1] [%] | inhibition in vivo at 100 mg/kg [2] [%]
1 | COC(=O)c1ccc(OCC(O)CNc2ccc(Cl)cc2)cc1 (stereo not drawn) [Compound 26, 3-(4'-methoxycarbonylphenoxy)-1-(4'-chlorophenylamino)-propanol-(2)] | 25.8 ± 23.7 | 81 ± 5.2
2 | CCOC(=O)c1ccc(NCC(O)COc2ccc(Cl)cc2)cc1 (stereo not drawn) [Compound 31] | 33.3 ± 17.6 | 63.6 ± 18.5
3 | CC(C)(C)c1ccc(OCC(O)COc2ccc(C=CC(=O)OCCO)cc2)cc1 (stereo not drawn) [Compound 50] | 49.3 ± 11.7 | 84.2 ± 5.4
4 | CCCOC(=O)C=Cc1ccc(OCC(O)COc2ccc(C(C)(C)C)cc2)cc1 (stereo not drawn) [Compound 23] | 40.9 ± 9.3 | 77.9 ± 5.5
5 | O=C(O)c1ccc(OCC(O)CSc2ccc(Cl)cc2)cc1 (stereo not drawn) [Compound 75, 3-(4'-Carboxyphenoxy)-1-(4'-chlorphenylmercapto)-propanol-(2)] | 32.2 ± 8.7 | 55.8 ± 14.2
6 | CCCOC(=O)c1ccc(OCC(O)COc2ccc(C(C)(C)C)cc2)cc1 (stereo not drawn) [Compound 18] | 34.4 ± 6.9 | 68.3 ± 23.1
7 | COC(=O)C=Cc1ccc(OCC(O)CNc2ccc(Cl)cc2)cc1 (stereo not drawn) [Compound 29] | 12.7 ± 12.5 | 62.3 ± 10.7
8 | O=C(O)CCc1ccc(OCC(O)COc2ccc(Cl)cc2)cc1 (stereo not drawn) [Compound 56, 3-4'-(2-Carboxyathyl)-phenoxy!-1-(4'-chlorphenoxy)-propanol-(2)] | 48 ± 12.9 | 76.7 ± 7.7
9 | CN(C)CCOC(=O)c1ccc(OCC(O)COc2ccc(Cl)cc2)cc1 (stereo not drawn) [Compound 83] | 46.2 ± 15.4 | 72.5 ± 11.1
10 | CCOC(=O)C=Cc1ccc(OCC(O)COc2ccc(Cl)cc2)cc1 (stereo not drawn) [Compound 10] | 38.4 ± 5.6 | 77.4 ± 8.5
11 | COC(=O)c1ccc(NCC(O)COc2ccc(Cl)cc2)cc1 (stereo not drawn) [Compound 30] | 12.1 ± 8.6 | 69.3 ± 15.9
12 | O=C(OCCCl)c1ccc(OCC(O)COc2ccc(Cl)cc2)cc1 (stereo not drawn) [Compound 82] | 53.9 ± 9.1 | 83.8 ± 6
13 | CC(C)(C)c1ccc(OCC(O)COc2ccc(C(=O)OCCO)cc2)cc1 (stereo not drawn) [Compound 48] | 60.4 ± 6.7 | 85.5 ± 15.6
14 | CC(C)(C)c1ccc(SCC(O)COc2ccc(C=CC(=O)O)cc2)cc1 (stereo not drawn) [Compound 81, 3-4'-(2-Carboxyvinyl)-phenoxy!-1-(4'-t-butylphenylmercapto)-propanol-(2)] | 27.5 ± 12.7 | 58.7 ± 14.8
15 | COC(=O)C=Cc1ccc(OCC(O)CSc2ccc(Cl)cc2)cc1 (stereo not drawn) [Compound 40, 3-(4'-(2-methoxycarbonylvinyl)-phenoxy)-1-(4'-chlorophenylmercapto)-propanol-(2)] | 9.6 ± 9.1 | 59.4 ± 14.7
16 | O=C(O)C=Cc1cccc(OCC(O)COc2ccc(Cl)cc2)c1 (stereo not drawn) [Compound 57, 3-3'-(2-Carboxyvinyl)-phenoxy!-1-(4'-chlorphenoxy)-propanol-(2)] | 28.4 ± 11.1 | 61.8 ± 10.9
17 | CC(C)(C)c1ccc(OCC(O)CNc2cccc(C(=O)O)c2)cc1 (stereo not drawn) [Compound 71, 3-(3'-Carboxyphenylamino)-1-(4'-t-butylphenoxy)-propanol-(2)] | 28.9 ± 9.5 | 58.4 ± 15.5
18 | C=CCOC(=O)C=Cc1ccc(OCC(O)COc2ccc(Cl)cc2)cc1 (stereo not drawn) [Compound 11] | 76.1 ± 3.7 | 40.2 ± 10.3
19 | C=CCOC(=O)c1ccc(OCC(O)COc2ccc(Cl)cc2)cc1 (stereo not drawn) [Compound 3] | 35.9 ± 18.1 | 68.6 ± 11
20 | CCCOC(=O)c1ccc(OCC(O)COc2ccc(Cl)cc2)cc1 (stereo not drawn) [Compound 4] | 53 ± 7.5 | 74.2 ± 13.4
21 | O=C(O)C=Cc1ccc(OCC(O)CSc2ccc(Cl)cc2)cc1 (stereo not drawn) [Compound 77, 3-4'-(2-Carboxyvinyl)-phenoxy!-1-(4'-chlorphenylmercapto)-propanol-(2)] | 55.5 ± 12.7 | 77.8 ± 12
22 | COC(=O)c1cccc(OCC(O)COc2ccc(Cl)cc2)c1 (stereo not drawn) [Compound 6] | 28.5 ± 10 | 78.1 ± 11.2
23 | CC(C)OC(=O)c1cccc(OCC(O)COc2ccc(Cl)cc2)c1 (stereo not drawn) [Compound 7] | 32.1 ± 18.1 | 73.2 ± 8.3
24 | COCCOC(=O)C=Cc1ccc(OCC(O)COc2ccc(C(C)(C)C)cc2)cc1 (stereo not drawn) [Compound 51] | 47.8 ± 10.4 | 77 ± 7.4
